In patent publication US20250179078A1, “INHIBITORS OF NLRP3” (PTC THERAPEUTICS, INC., priority 2022, published 2025):

Target: T1, NLRP3 (Homo sapiens, UniProt Q96P20)
T1 construct: host or cells: THP-1 cells differentiated with PMA
Experiment: IL-1β Secretion Assay (NLRP3-dependent IL1β secretion in THP1 cells)
Assay type: cell-based
Conditions: PMA-differentiated THP-1 cells; compounds incubated 20 h; 2.5 μM Nigericin 3 h; HTRF IL-1β readout; read-out: IC50 IL-1β Inhibition
Procedure: Monocytic THP-1 cells (ATCC: TIB-202) were maintained in growth media consisting of RPMI 1640 medium (ThermoFisher, Cat #11875-085), 10% FBS (ThermoFisher) and 0.05 mM β-mercaptoethanol (ThermoFisher, Cat #21985-023), according to the provider's instructions. The cell concentration was adjusted to 7.5×10^5 cells/mL, and plated in complete growth media with a final concentration of 100 ng/mL phorbol 12-myristate 13-acetate (PMA, Sigma #P8139). Cells were seeded at 100 µL/well into a 96-well cell culture plate (ThermoFisher Cat #165305) and allowed to differentiate for 24 h in a cell culture incubator at 37° C. with 5% CO2. Cells were washed 1× with 100 ul PBS and replaced with fresh RPMI+5% FBS. Compounds were serial diluted in DMSO with 3 fold dilution for a total of 7 concentrations. Diluted compounds were added to the cells at a ratio of 1:200 and incubated for 20 h. The NLRP3 inflammasome was activated with the addition of 2.5 μM Nigericin (Sigma: Cat #SML1779-1 ml), for 3 h. After incubation, 15 μL of conditioned media was removed and assayed for levels of IL-1β using the HTRF IL-1β assay kit (Cisbio: Cat #62HIL1BPEH) as per the manufacturer's instructions.
Compounds, once produced and prepared according to the present invention, can be assessed in variety of assays to characterize their activities. For example, NLRP3-dependent IL1β secretion was evaluated in THP1 cells. IC50 values of IL1β inhibition were calculated from the plot of percentage of inhibition versus the inhibitor concentration by a logistics fit. TABLE I depict examples of compounds according to generic Formula I. Data which is <1 nM is listed as *****; data 1-10 nM is listed as ****; data 10-100 nM is listed as ***, data 100-300 nM is listed as **, data ≥300 nM is listed as *.

T1 sequence (Q96P20 whole entry): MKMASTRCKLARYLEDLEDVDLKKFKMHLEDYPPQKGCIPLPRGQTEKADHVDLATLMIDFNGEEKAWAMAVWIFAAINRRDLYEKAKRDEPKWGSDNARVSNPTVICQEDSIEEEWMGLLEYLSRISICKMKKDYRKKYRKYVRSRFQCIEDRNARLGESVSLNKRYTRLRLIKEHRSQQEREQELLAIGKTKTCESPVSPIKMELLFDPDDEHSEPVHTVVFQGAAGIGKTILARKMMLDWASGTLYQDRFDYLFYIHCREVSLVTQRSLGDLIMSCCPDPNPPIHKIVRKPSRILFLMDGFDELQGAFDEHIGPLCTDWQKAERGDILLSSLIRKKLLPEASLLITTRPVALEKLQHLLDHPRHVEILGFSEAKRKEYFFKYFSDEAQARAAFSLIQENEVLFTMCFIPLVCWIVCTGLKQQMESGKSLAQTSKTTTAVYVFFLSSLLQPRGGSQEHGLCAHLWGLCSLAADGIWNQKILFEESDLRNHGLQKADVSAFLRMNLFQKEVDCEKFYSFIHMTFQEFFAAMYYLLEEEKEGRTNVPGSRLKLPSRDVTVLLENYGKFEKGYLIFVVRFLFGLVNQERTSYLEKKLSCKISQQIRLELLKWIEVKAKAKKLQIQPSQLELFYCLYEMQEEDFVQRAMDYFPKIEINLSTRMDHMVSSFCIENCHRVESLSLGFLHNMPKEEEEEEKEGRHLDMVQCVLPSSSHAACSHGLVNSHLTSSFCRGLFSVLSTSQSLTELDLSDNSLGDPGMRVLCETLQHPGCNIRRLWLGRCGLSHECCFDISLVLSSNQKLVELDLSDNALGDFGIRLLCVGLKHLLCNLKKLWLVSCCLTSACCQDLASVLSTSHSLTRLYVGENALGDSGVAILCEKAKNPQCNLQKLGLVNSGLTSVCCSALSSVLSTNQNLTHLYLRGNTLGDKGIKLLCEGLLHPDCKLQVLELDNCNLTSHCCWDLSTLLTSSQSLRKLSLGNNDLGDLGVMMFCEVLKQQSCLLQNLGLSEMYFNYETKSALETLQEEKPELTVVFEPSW

Row | IC50 [nM] | Structure (SMILES)
1 | < 1 | CCN1CCC[C@@H](Nc2nnc(-c3ccc(OC)cc3OC(F)(F)F)c3c(F)ccn23)C1 [Compound 50, N-[(3R)-1-ethylpiperidin-3-yl]-8-fluoro-1-[4-methoxy-2-(trifluoromethoxy)phenyl]pyrrolo[1,2-d][1,2,4]triazin-4-amine]
2 | 1 to 10 | COc1ccc(-c2nnc(N[C@H]3C[C@@](C)(O)C3)n3cccc23)c(C(F)(F)F)c1 [Compound 71, (1s,3s)-3-({1-[4-methoxy-2-(trifluoromethyl)phenyl]pyrrolo[1,2-d][1,2,4]triazin-4-yl}amino)-1-methylcyclobutan-1-ol]
3 | 1 to 10 | Cc1ccc(-c2nnc(NC(C)c3cccc(O)c3)n3cccc23)c(OC(F)F)c1 (stereo not drawn) [Compound 100, 3-[1-({1-[2-(difluoromethoxy)-4-methylphenyl]pyrrolo[1,2-d][1,2,4]triazin-4-yl}amino)ethyl]phenol]
4 | 10 to 100 | CCN1CC[C@H](O)[C@@H](Nc2nnc(-c3ccc(C(F)(F)F)cc3OC(F)F)c3cccn23)C1 [Compound 46, (3S,4S)-3-({1-[2-(difluoromethoxy)-4-(trifluoromethyl)phenyl]pyrrolo[1,2-d][1,2,4]triazin-4-yl}amino)-1-ethylpiperidin-4-ol]
5 | < 1 | CCN1CCC[C@@H](Nc2nnc(-c3ccc(OC)cc3OC(F)(F)F)c3cncn23)C1 [Compound 209, N-[(3R)-1-ethylpiperidin-3-yl]-1-[4-methoxy-2-(trifluoromethoxy)phenyl]imidazo[1,5-d][1,2,4]triazin-4-amine]
6 | 10 to 100 | O[C@H]1CCOC[C@@H]1Nc1nnc(-c2ccc(C(F)(F)F)cc2C(F)(F)F)c2cncn12 [Compound 274, (3S,4S)-3-({1-[2,4-bis(trifluoromethyl)phenyl]imidazo[1,5-d][1,2,4]triazin-4-yl}amino)oxan-4-ol]
7 | 10 to 100 | O=C1NCCC1Nc1nnc(-c2ccc(C(F)(F)F)cc2C(F)(F)F)c2ccnn12 (stereo not drawn) [Compound 396, 3-({4-[2,4-bis(trifluoromethyl)phenyl]pyrazolo[1,5-d][1,2,4]triazin-7-yl}amino)pyrrolidin-2-one]
8 | 1 to 10 | O=C1NCCC1Nc1nnc(-c2ccc(C(F)(F)F)cc2C(F)(F)F)c2cncn12 (stereo not drawn) [Compound 294, 3-({1-[2,4-bis(trifluoromethyl)phenyl]imidazo[1,5-d][1,2,4]triazin-4-yl}amino)pyrrolidin-2-one]
9 | < 1 | CCN1C[C@H](F)C[C@@H](Nc2nnc(-c3ccc(Br)cc3OC(F)F)c3cncn23)C1 [Compound 196, 1-[4-bromo-2-(difluoromethoxy)phenyl]-N-[(3R,5R)-1-ethyl-5-fluoropiperidin-3-yl]imidazo[1,5-d][1,2,4]triazin-4-amine]
10 | 1 to 10 | O[C@@H]1CCCC[C@@H](Nc2nnc(-c3ccc(C(F)(F)F)cc3CC(F)(F)F)c3cccn23)C1 (racemic) [Compound 129, (1R,3R)-3-({1-[2-(2,2,2-trifluoroethyl)-4-(trifluoromethyl)phenyl]pyrrolo[1,2-d][1,2,4]triazin-4-yl}amino)cycloheptan-1-ol AND (1S,3S)-3-({1-[2-(2,2,2-trifluoroethyl)-4-(trifluoromethyl)phenyl]pyrrolo[1,2-d][1,2,4]triazin-4-yl}amino)cycloheptan-1-ol]
11 | 10 to 100 | Cc1ccc(-c2nnc(N[C@@H]3CCOC[C@H]3O)n3cncc23)c(CC(F)(F)F)c1 [Compound 402, (3S,4R)-4-({1-[4-methyl-2-(2,2,2-trifluoroethyl)phenyl]imidazo[1,5-d][1,2,4]triazin-4-yl}amino)oxan-3-ol]
12 | 10 to 100 | FC(F)Oc1cc(C(F)(F)F)ccc1-c1nnc(N[C@@H]2CCCOC2)n2cncc12 [Compound 188, 1-[2-(difluoromethoxy)-4-(trifluoromethyl)phenyl]-N-[(3R)-oxan-3-yl]imidazo[1,5-d][1,2,4]triazin-4-amine]
13 | 1 to 10 | FC(F)Oc1ccc(-c2nnc(N[C@@H]3CCCOC3)n3cccc23)c(OC(F)(F)F)c1 [Compound 152, 1-[4-(difluoromethoxy)-2-(trifluoromethoxy)phenyl]-N-[(3R)-oxan-3-yl]pyrrolo[1,2-d][1,2,4]triazin-4-amine]
14 | 1 to 10 | O=C1NCCC1Nc1nnc(-c2ccc(C(F)(F)F)cc2CC(F)(F)F)c2cccn12 (stereo not drawn) [Compound 77, 3-({1-[2-(2,2,2-trifluoroethyl)-4-(trifluoromethyl)phenyl]pyrrolo[1,2-d][1,2,4]triazin-4-yl}amino)pyrrolidin-2-one]
15 | 10 to 100 | COc1ccc(-c2nnc(N[C@H]3C[C@@](C)(O)C3)n3cccc23)c(C2CC2)c1 [Compound 104, (1s,3s)-3-{[1-(2-cyclopropyl-4-methoxyphenyl)pyrrolo[1,2-d][1,2,4]triazin-4-yl]amino}-1-methylcyclobutan-1-ol]
16 | 1 to 10 | OCCN1CCC[C@@H](Nc2nnc(-c3ccc(OC(F)F)cc3OC(F)(F)F)c3cncn23)C1 [Compound 258, 2-[(3R)-3-({1-[4-(difluoromethoxy)-2-(trifluoromethoxy)phenyl]imidazo[1,5-d][1,2,4]triazin-4-yl}amino)piperidin-1-yl]ethan-1-ol]
17 | < 1 | CN1CCC[C@@H](Nc2nnc(-c3ccc(Br)cc3OC(F)(F)F)c3cncn23)C1 [Compound 312, 1-[4-bromo-2-(trifluoromethoxy)phenyl]-N-[(3R)-1-methylpiperidin-3-yl]imidazo[1,5-d][1,2,4]triazin-4-amine]
18 | 1 to 10 | COc1ccc(-c2nnc(N[C@@H]3CCCN(CCO)C3)n3cncc23)c(C(F)(F)F)c1 [Compound 213, 2-[(3R)-3-({1-[4-methoxy-2-(trifluoromethyl)phenyl]imidazo[1,5-d][1,2,4]triazin-4-yl}amino)piperidin-1-yl]ethan-1-ol]
19 | 10 to 100 | COc1ccc(-c2nnc(N[C@H]3C[C@@](C)(O)C3)n3nc(C)cc23)c(OC(F)(F)F)c1 [Compound 391, (1s,3s)-3-({4-[4-methoxy-2-(trifluoromethoxy)phenyl]-2-methylpyrazolo[1,5-d][1,2,4]triazin-7-yl}amino)-1-methylcyclobutan-1-ol]
20 | 1 to 10 | COc1ccc(-c2nnc(N[C@@H]3CCCN(C)C3)n3cccc23)c(OC(F)(F)F)c1 [Compound 8, 1-[4-methoxy-2-(trifluoromethoxy)phenyl]-N-[(3R)-1-methylpiperidin-3-yl]pyrrolo[1,2-d][1,2,4]triazin-4-amine]
21 | 10 to 100 | O=C1NCCCC1Nc1nnc(-c2ccc(C(F)(F)F)cc2C(F)(F)F)c2cncn12 (stereo not drawn) [Compound 276, 3-({1-[2,4-bis(trifluoromethyl)phenyl]imidazo[1,5-d][1,2,4]triazin-4-yl}amino)piperidin-2-one]
22 | 1 to 10 | O[C@H]1CCCC[C@@H]1Nc1nnc(-c2ccc(C(F)(F)F)cc2CC(F)(F)F)c2cccn12 [Compound 111, (1S,2S)-2-({1-[2-(2,2,2-trifluoroethyl)-4-(trifluoromethyl)phenyl]pyrrolo[1,2-d][1,2,4]triazin-4-yl}amino)cyclohexan-1-ol]
23 | 10 to 100 | CCN1CCC[C@@H](Nc2nnc(-c3ccc(OC)c(OC)c3OC)c3cc(C)nn23)C1 [Compound 370, N-[(3R)-1-ethylpiperidin-3-yl]-2-methyl-4-(2,3,4-trimethoxyphenyl)pyrazolo[1,5-d][1,2,4]triazin-7-amine]
24 | ≥ 300 | COc1ccc(-c2nnc(N[C@H]3CCCC[C@]3(C)O)n3cncc23)c(OC(F)(F)F)c1 (single isomer, unassigned) [Compound 310]
